We go through 3 compounds from patent US4622421A, “Phenylalkanoic acid derivatives and their use” (Sankyo Company Limited, priority 1983, dated 1986).

The test system of test [1] is IgM antibody-producing cells in the spleen. Description: Test for immuno-regulatory activity (Cunningham's method, IgM antibody production to sheep erythrocytes). It counts as in vivo, female mice of the BALB/c strain. As to conditions: mouse, oral, dose from 1 to 10 mg per kg, spleen after 5 days. The protocol:
The immuno-regulatory activity of (±)-2-[4-(cis-2-hydroxycyclohexylmethyl)phenyl]propionic acid was tested by Cunningham's method [A. J. Cunningham and A. Szenberg, Immunology 14, 599 (1968)]. The test compound was administered orally to female mice of the BALB/c strain and simultaneously sheep erythrocytes were administered intraperitonially, in order to sensitise the animal to these erythrocytes as an antigen. After 5 days, the spleen of the experimental animal was extracted and the number of IgM antibody-producingcells in the spleen cells was calculated.

In test [2] the test system is carrageenin-induced inflammation (hind paw oedema). Kind of test: Carrageenin oedema test for anti-inflammatory activity. As to conditions: po, read-out: Anti-inflammatory activity, ID50. The format is in vivo, Male Wistar rats. How it is done:
Male Wistar rats weighing 120-150 g were fasted overnight and then received a test compound per os as an aqueous tragacanth suspension. 30 minutes later, inflammation was induced by the subcutaneous injection of 0.05 ml of a 1% w/v carrageenin suspension into the plantar tissue of a hind paw of each rat [Winter et al., Proc. Soc. […] The anti-oedema activity was measured volumetrically, by assessing the response, as calculated from the following equation: Response=(V-Vo)/Vo where Vo and V represent, respectively, the paw volume immediately before and 3 hours after the carrageenin injection.
(In general: The carrageenan paw model is a standard test of acute inflammation.)

Test [3] has as its system pressure-induced pain threshold. Description: Pain test for analgesic activity (modified Randall and Selitto, Brewers' yeast-inflamed paw). As to conditions: read-out: Analgesic activity, ED50. It counts as in vivo, Male Wistar-Imamichi rats. How it is done:
This test was conducted according to a modification of the method reported by L. O. Randall and J. J. Selitto in Arch. Int.
Male Wistar-Imamichi rats of 4 weeks of age and weighing 60-90 g were injected with 0.1 ml of a 20% by weight suspension of Brewers' yeast in the right hind paw. […] Each of these was given orally a test compound as an aqueous tragacanth suspension. 1 and 2 hours after administration of the test compound, the pain threshold was determined by observing pain responses (such as struggling or squeaking) when the inflamed or normal paw was subjected to pressure by a machine (Ugo-Basile).

The mark [4] stands for this setting: rat, per os, paw volume 3 hours after carrageenin, dose inhibiting the response by 50%.
Setting [5] is: rat, oral, pain threshold 1 and 2 hours after administration, Litchfield and Wilcoxon.

Like-named read-outs stand apart in the source and are kept apart here. Bounds are passed on as bounds.

For `CC(C(=O)O)c1ccc(C[C@@H]2CCCC[C@@H]2O)cc1` (mixture of isomers) [Compound 1, (±)-2-[4-(cis-2-hydroxycyclohexylmethyl)phenyl]propionic acid], the “percent inhibition of antibody production” value in test [1] is not below 50%. For the same compound, the ED50 in test [2] (setting [4]) is 3.3 mg/kg; in test [3] (setting [5]), 0.86 mg/kg.

As for `COc1ccc2c(c1)c(CC(=O)O)c(C)n2C(=O)c1ccc(Cl)cc1` [Compound 3, Indomethacin, reference compound], the ED50 amounted to 2.2 mg/kg in test [2] (Rattus norvegicus, 3 h) and 1.6 mg/kg in test [3] (Rattus norvegicus, po).

In the case of `CC(C(=O)O)c1ccc(C[C@@H]2CCCC[C@H]2O)cc1` (mixture of isomers) [Compound 2, (±)-2-[4-(trans-2-hydroxycyclohexylmethyl)phenyl]propionic acid], the ED50 amounted to 0.96 mg/kg in test [2] (setting [4]) and 0.76 mg/kg in test [3] (setting [5]).
